Tests used:
Assay type in all cases: biochemical
FGFR3 = biological target: T1, FGFR3 (Homo sapiens, UniProt P22607); assay: FGFR Enzymatic Assay (FRET peptide phosphorylation), FGFR3; conditions: ATP 140 μM, 25° C. for 1 hr
T1 construct: purchased Millipore
Description: (§1) The inhibitor potency of the Example compounds was measured in an enzyme assay that measures peptide phosphorylation using FRET measurements to detect product formation. Inhibitors were serially diluted in DMSO and a volume of 0.5 μL was transferred to the wells of a 384-well plate. For FGFR3, a 10 μL volume of FGFR3 enzyme (Millipore) diluted in assay buffer (50 mM HEPES, 10 mM MgCl2, 1 mM EGTA, 0.01% Tween-20, 5 mM DTT, pH 7.5) was added to the plate and pre-incubated for 5-10 minutes. Appropriate controls (enzyme blank and enzyme with no inhibitor) were included on the plate. The assay was initiated by the addition of a 10 μL solution containing biotinylated EQEDEPEGDYFEWLE peptide substrate (SEQ ID NO: 1) and ATP (final concentrations of 500 nM and 140 μM respectively) in assay buffer to the wells. The plate was incubated at 25° C. for 1 hr. The reactions were ended with the addition of 10 μL/well of quench solution (50 mM Tris, 150 mM NaCl, 0.5 mg/mL BSA, pH˜7.8, 30 mM EDTA with Perkin Elmer Lance Detection Reagents at 3.75 nM Eu-antibody PY20 and 180 nM APC-Streptavidin). The plate was allowed to equilibrate for 1 hour before scanning the wells on a PheraStar plate reader (BMG Labtech). The enzymes were purchased from Millipore or Invitrogen.
(§2) GraphPad prism3 was used to analyze the data. The IC50 values were derived by fitting the data to the equation for a sigmoidal dose-response with a variable slope. Y=Bottom+(Top−Bottom)/(1+10^((Log IC50−X)*HillSlope)) where X is the logarithm of concentration and Y is the response.

FGFR1 = biological target: T2, FGFR1 (Homo sapiens, UniProt P11362); assay: FGFR Enzymatic Assay (FRET peptide phosphorylation), FGFR1; conditions: FGFR1 0.02 nM, ATP 210 μM
T2 construct: purchased Millipore or Invitrogen
T2 sequence (P11362 22-822): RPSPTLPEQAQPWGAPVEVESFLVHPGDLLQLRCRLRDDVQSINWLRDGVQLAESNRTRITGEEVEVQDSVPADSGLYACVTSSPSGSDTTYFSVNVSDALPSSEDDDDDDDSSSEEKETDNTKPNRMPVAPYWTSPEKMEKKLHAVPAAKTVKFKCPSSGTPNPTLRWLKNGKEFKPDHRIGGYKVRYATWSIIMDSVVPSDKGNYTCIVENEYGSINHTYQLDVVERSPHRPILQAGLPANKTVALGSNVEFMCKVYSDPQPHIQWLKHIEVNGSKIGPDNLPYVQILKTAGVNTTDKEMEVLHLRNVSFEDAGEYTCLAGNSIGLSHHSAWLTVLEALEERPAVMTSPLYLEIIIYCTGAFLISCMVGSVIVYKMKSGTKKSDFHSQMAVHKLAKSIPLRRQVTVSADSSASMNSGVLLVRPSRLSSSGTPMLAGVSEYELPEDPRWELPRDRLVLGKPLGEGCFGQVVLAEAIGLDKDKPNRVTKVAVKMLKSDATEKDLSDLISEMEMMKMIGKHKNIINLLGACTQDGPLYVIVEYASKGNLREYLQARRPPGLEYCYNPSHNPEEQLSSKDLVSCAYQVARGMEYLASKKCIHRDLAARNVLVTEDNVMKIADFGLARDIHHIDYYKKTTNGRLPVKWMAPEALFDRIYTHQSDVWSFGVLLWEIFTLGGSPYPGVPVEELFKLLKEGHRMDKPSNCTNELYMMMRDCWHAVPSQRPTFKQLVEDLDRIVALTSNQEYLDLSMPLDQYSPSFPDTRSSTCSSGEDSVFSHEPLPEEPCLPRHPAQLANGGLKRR
Description: as §1
(§3) FGFR1 and FGFR2 were measured under equivalent conditions with the following changes in enzyme and ATP concentrations: FGFR1, 0.02 nM and 210 μM, respectively and FGFR2, 0.01 nM and 100 μM, respectively.
as §2

FGFR2 = biological target: T3, FGFR2 (Homo sapiens, UniProt P21802); assay: FGFR Enzymatic Assay (FRET peptide phosphorylation), FGFR2; conditions: FGFR2 0.01 nM, ATP 100 μM
T3 construct: purchased Millipore or Invitrogen
T3 sequence (P21802 22-821): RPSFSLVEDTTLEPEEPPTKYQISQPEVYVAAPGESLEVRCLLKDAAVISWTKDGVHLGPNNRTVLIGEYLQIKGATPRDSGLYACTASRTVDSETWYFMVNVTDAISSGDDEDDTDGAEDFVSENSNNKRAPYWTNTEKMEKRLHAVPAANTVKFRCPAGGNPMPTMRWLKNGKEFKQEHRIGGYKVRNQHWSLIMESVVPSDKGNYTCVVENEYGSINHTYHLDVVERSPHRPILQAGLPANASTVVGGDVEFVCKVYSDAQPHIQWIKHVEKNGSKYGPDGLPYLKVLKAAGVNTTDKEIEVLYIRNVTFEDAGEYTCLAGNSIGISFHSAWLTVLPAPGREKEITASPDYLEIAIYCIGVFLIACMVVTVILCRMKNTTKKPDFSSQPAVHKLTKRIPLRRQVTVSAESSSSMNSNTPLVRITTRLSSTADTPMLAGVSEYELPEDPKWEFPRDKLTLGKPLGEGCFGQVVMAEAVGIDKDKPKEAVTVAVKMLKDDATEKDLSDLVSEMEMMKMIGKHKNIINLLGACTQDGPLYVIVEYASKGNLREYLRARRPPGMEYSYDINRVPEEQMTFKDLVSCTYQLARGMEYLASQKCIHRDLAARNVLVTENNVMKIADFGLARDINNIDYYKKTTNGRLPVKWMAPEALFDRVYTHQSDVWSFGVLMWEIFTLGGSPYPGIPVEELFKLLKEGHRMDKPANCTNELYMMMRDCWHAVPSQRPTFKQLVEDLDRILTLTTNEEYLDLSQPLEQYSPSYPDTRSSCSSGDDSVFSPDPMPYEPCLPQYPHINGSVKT
Description: as §1, §3, §2

Measured: IC50

T1 sequence (P22607 23-806): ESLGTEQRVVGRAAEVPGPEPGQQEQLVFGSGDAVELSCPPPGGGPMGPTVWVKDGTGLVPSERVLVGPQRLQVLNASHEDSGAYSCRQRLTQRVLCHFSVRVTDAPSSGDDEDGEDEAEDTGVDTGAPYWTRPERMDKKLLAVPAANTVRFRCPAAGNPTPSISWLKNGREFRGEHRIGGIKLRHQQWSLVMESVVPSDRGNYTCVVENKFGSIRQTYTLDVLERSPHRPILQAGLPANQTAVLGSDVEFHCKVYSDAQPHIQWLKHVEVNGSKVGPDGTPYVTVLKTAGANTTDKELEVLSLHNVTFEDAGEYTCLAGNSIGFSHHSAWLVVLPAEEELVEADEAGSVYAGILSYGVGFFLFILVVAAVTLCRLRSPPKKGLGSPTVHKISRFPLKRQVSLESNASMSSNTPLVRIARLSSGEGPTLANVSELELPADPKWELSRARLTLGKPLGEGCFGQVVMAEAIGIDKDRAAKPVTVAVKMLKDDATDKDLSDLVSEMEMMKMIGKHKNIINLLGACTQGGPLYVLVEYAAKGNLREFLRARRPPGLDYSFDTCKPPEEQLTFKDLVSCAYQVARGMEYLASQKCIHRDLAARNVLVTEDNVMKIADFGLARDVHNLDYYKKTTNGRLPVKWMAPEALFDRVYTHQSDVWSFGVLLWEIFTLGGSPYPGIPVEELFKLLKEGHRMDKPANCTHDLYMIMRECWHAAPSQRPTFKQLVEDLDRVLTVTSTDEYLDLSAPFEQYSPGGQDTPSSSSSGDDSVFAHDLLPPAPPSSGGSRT

COc1cc(OC)c(Cl)c(-c2cc3[nH]nc(-c4cnn(CC(=O)N5CC[C@H](F)C5)c4)c3cn2)c1Cl [Example 48, 6-(2,6-Dichloro-3,5-dimethoxyphenyl)-3-(1-{2-[(3S)-3-fluoropyrrolidin-1-yl]-2-oxoethyl}-1H-pyrazol-4-yl)-1H-pyrazolo[4,3-c]pyridine]
< 100 nM: all assays above

COc1cc(OC)c(Cl)c(-c2cc3[nH]nc(-c4cnn(CC(=O)NC5CC5)c4)c3cn2)c1Cl [Example 38, N-Cyclopropyl-2-{4-[6-(2,6-dichloro-3,5-dimethoxyphenyl)-1H-pyrazolo[4,3-c]pyridin-3-yl]-1H-pyrazol-1-yl}acetamide]
< 100 nM: all assays above

COc1cc(OC)c(F)c(-c2ncc3c(-c4ccc(N5CCN(C)CC5)nc4)n[nH]c3n2)c1F [Example 18, 6-(2,6-Difluoro-3,5-dimethoxyphenyl)-3-[6-(4-methylpiperazin-1-yl)pyridin-3-yl]-1H-pyrazolo[3,4-d]pyrimidine]
< 100 nM: all assays above

COc1cc(OC)c(F)c(-c2ncc3c(-c4ccc5nccn5c4)n[nH]c3n2)c1F [Example 93, 6-(2,6-Difluoro-3,5-dimethoxyphenyl)-3-imidazo[1,2-a]pyridin-6-yl-1H-pyrazolo[3,4-d]pyrimidine]
< 100 nM: all assays above

COc1cc(OC)c(F)c(-c2cc3[nH]nc(-c4cnn(C)c4)c3cn2)c1F [Example 91, 6-(2,6-Difluoro-3,5-dimethoxyphenyl)-3-(1-methyl-1H-pyrazol-4-yl)-1H-pyrazolo[4,3-c]pyridine]
< 100 nM: all assays above

COc1cc(OC)c(Cl)c(-c2ncc3c(-c4ccc5c(c4)CN(C4CC4)C5=O)n[nH]c3n2)c1Cl [Example 74, 2-Cyclopropyl-5-[6-(2,6-dichloro-3,5-dimethoxyphenyl)-1H-pyrazolo[3,4-d]pyrimidin-3-yl]isoindolin-1-one]
< 100 nM: all assays above

COc1cc(OC)c(F)c(-c2cc3[nH]nc(-c4ccc5c(c4)CN(CCC4CCCN4C)C5=O)c3cn2)c1F (stereo not drawn) [Example 68, 5-[6-(2,6-Difluoro-3,5-dimethoxyphenyl)-1H-pyrazolo[4,3-c]pyridin-3-yl]-2-[2-(1-methylpyrrolidin-2-yl)ethyl]isoindolin-1-one]
< 100 nM: all assays above

COc1cc(OC)c(F)c(-c2cc3[nH]nc(-c4ccc5c(c4)CC(C(=O)N(C)C)O5)c3cn2)c1F (single isomer, unassigned) [Example 83, 5-[6-(2,6-Difluoro-3,5-dimethoxyphenyl)-1H-pyrazolo[4,3-c]pyridin-3-yl]-N,N-dimethyl-2,3-dihydro-1-benzofuran-2-carboxamide]
< 100 nM: all assays above

CCN1Cc2cc(-c3n[nH]c4nc(-c5c(Cl)c(OC)cc(OC)c5Cl)ncc34)cnc2C1=O [Example 77, 3-[6-(2,6-Dichloro-3,5-dimethoxyphenyl)-1H-pyrazolo[3,4-d]pyrimidin-3-yl]-6-ethyl-5,6-dihydro-7H-pyrrolo[3,4-b]pyridin-7-one]
< 100 nM: all assays above

COc1cc(OC)c(Cl)c(-c2cc3[nH]nc(-c4cnn(CC(=O)N5CCC(O)C5)c4)c3cn2)c1Cl (stereo not drawn) [Example 43, 1-({4-[6-(2,6-Dichloro-3,5-dimethoxyphenyl)-1H-pyrazolo[4,3-c]pyridin-3-yl]-1H-pyrazol-1-yl}acetyl)pyrrolidin-3-ol]
< 100 nM: all assays above

COc1cc(OC)c(F)c(-c2ncc3c(-c4ccc5c(c4)CC(C(=O)N(C)C)O5)n[nH]c3n2)c1F (stereo not drawn) [Example 3, 5-[6-(2,6-Difluoro-3,5-dimethoxyphenyl)-1H-pyrazolo[3,4-d]pyrimidin-3-yl]-N,N-dimethyl-2,3-dihydro-1-benzofuran-2-carboxamide]
< 100 nM: all assays above

COc1cc(OC)c(F)c(-c2ccc3c(-c4cnn(C)c4)n[nH]c3n2)c1F [Example 72, 6-(2,6-Difluoro-3,5-dimethoxyphenyl)-3-(1-methyl-1H-pyrazol-4-yl)-1H-pyrazolo[3,4-b]pyridine]
< 100 nM: all assays above

COc1cc(OC)c(F)c(-c2ncc3c(-c4ccc5c(c4)CC(C(=O)N4CCN(C)CC4)O5)n[nH]c3n2)c1F (stereo not drawn) [Example 7, 6-(2,6-Difluoro-3,5-dimethoxyphenyl)-3-{2-[(4-methylpiperazin-1-yl)carbonyl]-2,3-dihydro-1-benzofuran-5-yl}-1H-pyrazolo[3,4-d]pyrimidine]
< 100 nM: all assays above

COc1cc(OC)c(Cl)c(-c2cc3[nH]nc(/C=C/c4cnn(CCO)c4)c3cn2)c1Cl [Example 50, 2-(4-{(E)-2-[6-(2,6-Dichloro-3,5-dimethoxyphenyl)-1H-pyrazolo[4,3-c]pyridin-3-yl]vinyl}-1H-pyrazol-1-yl)ethanol]
< 100 nM: all assays above

COc1cc(OC)c(Cl)c(-c2cc3[nH]nc(-c4ccc(C(O)C(=O)N(C)C)c(F)c4)c3cn2)c1Cl (stereo not drawn) [Example 34, 2-{4-[6-(2,6-Dichloro-3,5-dimethoxyphenyl)-1H-pyrazolo[4,3-c]pyridin-3-yl]-2-fluorophenyl}-2-hydroxy-N,N-dimethylacetamide]
< 100 nM: all assays above

COc1cc(OC)c(Cl)c(-c2cc3[nH]nc(-c4ccc5c(c4)COC5=O)c3cn2)c1Cl [Example 32, 5-[6-(2,6-Dichloro-3,5-dimethoxyphenyl)-1H-pyrazolo[4,3-c]pyridin-3-yl]-2-benzofuran-1(3H)-one]
< 100 nM: all assays above

COc1cc(OC)c(F)c(-c2ncc3c(-c4ccc5c(c4)CN([C@H]4CC[C@H](O)CC4)C5=O)n[nH]c3n2)c1F [Example 15, 5-[6-(2,6-Difluoro-3,5-dimethoxyphenyl)-1H-pyrazolo[3,4-d]pyrimidin-3-yl]-2-(trans-4-hydroxycyclohexyl)isoindolin-1-one]
< 100 nM: all assays above

COc1cc(OC)c(Cl)c(-c2cc3[nH]nc(-c4cnn(CC(=O)N5CCN(C)CC5)c4)c3cn2)c1Cl [Example 41, 6-(2,6-Dichloro-3,5-dimethoxyphenyl)-3-{1-[2-(4-methylpiperazin-1-yl)-2-oxoethyl]-1H-pyrazol-4-yl}-1H-pyrazolo[4,3-c]pyridine]
< 100 nM: all assays above

COc1cc(OC)c(F)c(-c2cc3[nH]nc(-c4ccc5c(c4)CC(C(=O)N4CCN(C)CC4)O5)c3cn2)c1F (stereo not drawn) [Example 24, 6-(2,6-Difluoro-3,5-dimethoxyphenyl)-3-{2-[(4-methylpiperazin-1-yl)carbonyl]-2,3-dihydro-1-benzofuran-5-yl}-1H-pyrazolo[4,3-c]pyridine]
< 100 nM: all assays above

COc1cc(OC)c(F)c(-c2ncc3c(-c4ccc(OCCN(C)C)cc4)n[nH]c3n2)c1F [Example 20, 2-{4-[6-(2,6-Difluoro-3,5-dimethoxyphenyl)-1H-pyrazolo[3,4-d]pyrimidin-3-yl]phenoxy}-N,N-dimethylethanamine]
< 100 nM: all assays above

COCCNC(=O)Cn1cc(-c2n[nH]c3cc(-c4c(Cl)c(OC)cc(OC)c4Cl)ncc23)cn1 [Example 46, 2-{4-[6-(2,6-Dichloro-3,5-dimethoxyphenyl)-1H-pyrazolo[4,3-c]pyridin-3-yl]-1H-pyrazol-1-yl}-N-(2-methoxyethyl)acetamide]
< 100 nM: all assays above
